Data: patent publication US20080293644A1, “GUAVA EXTRACT” (priority 2007, published 2008)
Blank lines part the entries; values can stand above or below the molecule they belong to.

Assays:
DP-IV = target: T1, DP-IV (Homo sapiens, UniProt P27487); test: DP-IV activity colorimetric assay (Gly-Pro-4-NA hydrolysis, 405 nm) in human plasma; type: biochemical; settings: for %-Inhibition DP-IV / inhibition at 100000 µM: unspecific enzyme inhibitors and solvents at 100 mM
T1 construct: DP-IV also exists as a soluble circulating form in plasma; from tissue; host or cells: human plasma
Description: DP-IV activity was measured by a colorimetric assay.
400 μL assay buffer (9.5 g HEPES/l distilled water, pH adjusted to 7.0, product number H4034, Sigma, St. Louis, Mo.), 150 μL human plasma and 100 μL inhibitor solution (or solvent) were transferred into a photometer cuvette, gently mixed and pre-incubated at 37° C. for 3 minutes. The assay was then started by addition of 70 μL substrate solution (8.6 mg Gly-Pro-4-NA in 10 ml assay buffer).
DP-IV activity is expressed as the linear change in optical density over 20 min (Δ Abs/min).
Full inhibition (100%) indicated no apparent increase in absorption.
100% activity in a test sample indicated the same increase in absorption compared in a sample with no inhibitor. Zero activity (0%) indicated no apparent increase in absorption.

[1] = Stability of individual flavonol-glycosides during incubation conditions; type: physicochemical; settings: 2 g extract (Example 2)/100 ml incubation media
CaCO2 cells = test: Absorption (uptake) of quercetin-glycosides in CaCO2 cells; type: in vitro ADME; settings: 60 minutes; for % uptake by CaCO2 cells (% of flavonol-glycosides present in incubation media): 2 g guava extract/100 ml incubation media, 37° C., mean of 5 incubations
Description: Incubation conditions: 37° C. for 60 minutes (5 replicate incubations)
Data evaluation: Ratio of peak areas of individual flavonol-glycosides obtained from HPLC analysis of incubation media (immediately after preparation and after 60 minutes of incubation) and the cell content.
Cells were grown in 75 cm^2 culture-flasks (T75) and subcultured after one week (every other day washed with PBS buffer, removed with trypsin and transferred to an new culture flask).
7 to 8 days until confluency was reached. The cells were washed with PBS buffer and incubated with the flavonol for 60 minutes.
After the corresponding incubation time, 900 μl of incubation medium used was taken from each well and mixed with 100 μl formic acid. The cells were washed with PBS buffer and removed using 1 ml of 10% formic acid. Cells were sonicated 3 times for 30 seconds, centrifuged for 10 minutes and the pellets were discarded. The supernatant was used as sample for HPLC.

T1 sequence (P27487 39-766 limits assumed): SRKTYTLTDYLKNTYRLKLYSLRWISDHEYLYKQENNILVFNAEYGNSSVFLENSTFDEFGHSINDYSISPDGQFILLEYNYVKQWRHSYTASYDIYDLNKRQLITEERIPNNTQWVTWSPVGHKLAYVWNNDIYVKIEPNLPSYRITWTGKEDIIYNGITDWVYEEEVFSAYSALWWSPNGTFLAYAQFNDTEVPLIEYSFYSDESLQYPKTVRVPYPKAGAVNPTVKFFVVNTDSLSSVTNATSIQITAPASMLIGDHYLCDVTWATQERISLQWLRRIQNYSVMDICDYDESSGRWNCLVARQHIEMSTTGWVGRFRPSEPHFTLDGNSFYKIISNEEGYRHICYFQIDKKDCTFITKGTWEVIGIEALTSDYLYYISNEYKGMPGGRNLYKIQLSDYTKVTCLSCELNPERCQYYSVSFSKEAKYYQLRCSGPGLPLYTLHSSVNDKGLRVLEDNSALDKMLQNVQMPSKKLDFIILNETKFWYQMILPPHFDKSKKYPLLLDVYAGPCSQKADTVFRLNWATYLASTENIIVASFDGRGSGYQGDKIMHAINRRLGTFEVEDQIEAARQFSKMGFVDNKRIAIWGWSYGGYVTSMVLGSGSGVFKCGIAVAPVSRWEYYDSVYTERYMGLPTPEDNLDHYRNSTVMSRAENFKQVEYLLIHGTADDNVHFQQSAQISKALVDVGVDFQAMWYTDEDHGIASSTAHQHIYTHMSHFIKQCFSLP

Structure (SMILES): O=C(O)CN(CCN(CC(=O)O)CC(=O)O)CC(=O)O [EDTA]
%-Inhibition DP-IV (DP-IV; human plasma): 24.0%

Structure (SMILES): Cl.NCCN [Ethylendiamine•HCl]
%-Inhibition DP-IV (DP-IV; human plasma): 19.0%

Structure (SMILES): OCCS [Mercaptoethanol]
%-Inhibition DP-IV (DP-IV; human plasma): 15.3%

Structure (SMILES): CO [Methanol]
inhibition at 100000 µM (DP-IV; human plasma): 59.7%

Structure (SMILES): C[CH2][Hg][S]c1ccccc1C(=O)[O-].[Na+] [Thimerosal]
%-Inhibition DP-IV (DP-IV; human plasma): <1.0%

Structure (SMILES): O=c1c(O[C@@H]2O[C@H](CO)[C@@H](O)[C@H](O)[C@H]2O)c(-c2ccc(O)c(O)c2)oc2cc(O)cc(O)c12 [compound 4]
Stability 60 min. at 37° C., pH = 7 [1]: 98.2 % from time = 0 | % uptake by CaCO2 cells (% of flavonol-glycosides present in incubation media) (CaCO2 cells): 4.5%

Structure (SMILES): O=c1c(O[C@@H]2OC[C@H](O)[C@H](O)[C@H]2O)c(-c2ccc(O)c(O)c2)oc2cc(O)cc(O)c12 [guaijaverin, quercetin-3-O-alpha-L-arabinopyranoside]
IC50 (DP-IV; concentration yielding a DP-IV inhibition of around 50%, human plasma, 70-280 μg/ml tested): 322 to 483 µM | DP-IV inhibition (in words) (DP-IV; human plasma): clear, dose dependent inhibition | concentration yielding a DP-IV inhibition of around 50% (DP-IV; human plasma, read from dose/response curve): 100-150 μg/assay volume | inhibition of DP-IV (DP-IV; sample adjusted to contain 180 μg guaijaverin/ml test assay, human plasma (FIG. 6)): 50% | absorption ranking in CaCO2 cells (in words) (CaCO2 cells; 2 g guava extract/100 ml): best absorption

Next, values leading:

%-Inhibition DP-IV (DP-IV; human plasma): 75.3%
Structure (SMILES): C[S+](C)[O-] [DMSO]

inhibition at 100000 µM (DP-IV; human plasma): 52.8%
Structure (SMILES): CCO [Ethanol]

%-Inhibition DP-IV (DP-IV; human plasma): 10.0%
Structure (SMILES): Cn1ccnc1S [Methimazol]

%-Inhibition DP-IV (DP-IV; human plasma): 19.3%
Structure (SMILES): [Zn+2] [Zinc^++]

Stability 60 min. at 37° C., pH = 7 [1]: 98.0 % from time = 0 | IC50 (DP-IV; Concentration for 50% inhibition of DPIV, isolated flavonol-glycosides tested at 100-500 μg/ml, estimated): 400 µM | % uptake by CaCO2 cells (% of flavonol-glycosides present in incubation media) (CaCO2 cells): 5.3%
Structure (SMILES): O=c1c(O[C@@H]2OC[C@H](O)[C@H](O)[C@H]2O)c(-c2ccc(O)c(O)c2)oc2cc(O)cc(O)c12 [compound 6]
